Laboratory results published in patent US8637563B2, “Non-peptide thrombopoietin receptor agonist in the treatment of cancer and pre-cancerous syndromes” (GlaxoSmithKline LLC, priority 2007, dated 2014).
≈ marks a conversion by molar mass, not a printed value.

What was measured:
Type in all cases: cell-based
[1] = tested on: Akt (Ser473) activation in washed human platelets; test: Activation of Akt in human platelets; conditions: TPO 100 ng/mL; for Akt activation (phosphorylation), agent alone: 15 minutes alone, Compound A (SB) 10 mM, phosphorylation-specific antibodies, Blot 1
Experimental: Washed human platelets from healthy volunteers were treated with vehicle (V) [0.33% DMSO], 100 ng/mL TPO [recombinant human thrombopoietin obtained from R&D Systems, Inc., Minneapolis, Minn., USA, or SB (SB=Compound A in Blot 1) (10 mM) for 15 minutes alone, or 13 minutes alone followed by 2 minutes with 1 mM ADP (+ADP). Protein extracts were probed for Akt (Ser473) activation. Results are representative of 3 individual experiments.
Compound A was compared to TPO in human platelets through the examination of a signal transduction pathway known to be activated through TPOR [TPO receptor] stimulation; specifically, Pi3K/Akt pathway activation [Chen, J., et al., Blood, 86, 4054-4062 (1995); Kojima, H., et al., Thrombosis & Haemostassis, 74, 1541-1545 (1995); Ezumi, Y., et al., FEBS Letters, 374, 48-52 (1995)].

[2] = tested on: HOP-92 (NSCLC); test: Solid Tumor Cell Line Proliferation Assay, HOP-92; conditions: Homo sapiens; HOP-92, 72 hr, Cell Titer Glo
Experimental: (§1) Cells in log phase growth were seeded in a 96-well plate at 2500 cells/well in 50 uL medium and incubated at 37° C., 5% CO2 overnight. Compound A was diluted in medium and added at 0.1, 0.4, 1, 4, 10 and 40 ug/mL. Following a 72 hr incubation at 37° C., 5% CO2. The CellTiter-Glo Luminescent Cell Viability Assay (ProMega Corp) was performed according to the manufacturer's instructions. Briefly following a 30 min room temperature incubation 100 uL CELLTiter Glo reagent was added to each well and mixed for 2 minutes. Luminescence was recorded following a 10 minute room temperature incubation using a PerkinElmer Microbeta luminescence counter. IC50 was determined by EXCel Fit 4.2.1.

[3] = tested on: HepG2 (Hepatocellular carcinoma); test: Solid Tumor Cell Line Proliferation Assay, HepG2; conditions: Homo sapiens; HepG2, 72 hr, Cell Titer Glo
Experimental: Cells in log phase growth were seeded in a 96-well plate at 2500 cells/well in 50 uL medium and incubated at 37° C., 5% CO2 overnight. […] Following a 72 hr incubation at 37° C., 5% CO2. The CellTiter-Glo Luminescent Cell Viability Assay (ProMega Corp) was performed according to the manufacturer's instructions. Briefly following a 30 min room temperature incubation 100 uL CELLTiter Glo reagent was added to each well and mixed for 2 minutes. Luminescence was recorded following a 10 minute room temperature incubation using a PerkinElmer Microbeta luminescence counter. IC50 was determined by EXCel Fit 4.2.1.

[4] = tested on: NCI-H226 (NSCLC); test: Solid Tumor Cell Line Proliferation Assay, NCI-H226; conditions: Homo sapiens; NCI-H226, 72 hr, Cell Titer Glo
Experimental: as §1

[5] = tested on: CCRF-CEM Lymphoblastic T cell leukemia cells; test: Cancer Proliferation Assay (3H-thymidine uptake), CCRF-CEM; conditions: Homo sapiens, 3 days, 3H-TdR uptake
Experimental: (§2) Flat-bottom 96-well microtiter tissue culture plates (Costar, Cambridge, Mass.) were used for the assay. Cultures were performed in replicates of 4 wells; each well contained 1×10^4 cells. Six concentrations of Compound A (ranging from 40 μg/mL to 100 ng/mL) were tested in the absence and presence of 10 ng/mL G-CSF, 100 ng/mL of TPO or 5 U/mL of EPO. Cells were also tested in medium alone, G-CSF alone, TPO alone, or EPO alone to establish 100% of control values. The final volume in each well was 200 μL. Plates were placed in a humidified 5% CO2 incubator at 37° C. for 3 days. Proliferation was measured by the uptake of tritiated thymidine (^3H-TdR) by pulsing wells with 1 μCi of ^3H-TdR for the final 18 hours of incubation, harvesting the plate on a Brandel 96-well cell harvester (Gaithersburg, Md.) and measuring radioactivity on the filter mats in a Wallac 1450 Microbeta TriLux scintillation counter (Turku, Finland). The effect of Compound A was determined by comparing the results of cells treated with test compound with control cells (100% of control).

[6] = tested on: HepG2 cells; test: Liver Cancer Assay (CellTiter Glo); conditions: Homo sapiens, HepG2, 72 hours, n=4 wells, read-out: IC50, decrease in the number of viable cells
Experimental: HepG2 is a human hepatocellular carcinoma cell line. Active cell determinations were performed on HepG2 cells by plating 2×10^4 cells/mL in 96-well plates in culture medium containing 10% FBS and incubating overnight in 5% CO2 at 37°. Cells were then treated with Compound A at 0, 0.1, 0.4, 1, 4, 10, 40 ug/mL and incubated for 72 hours. Cell proliferation was measured using the CellTiter Glo (Promega) reagent according to the manufacturer's protocol. Data is the mean of n=4 wells reported as the percent of the control (0 ug/mL of Compound A). Compound A induced a decrease in the number of viable cells with an IC50 of approximately 6 ug/mL.

[7] = tested on: NCI-H322M (NSCLC); test: Solid Tumor Cell Line Proliferation Assay, NCI-H322M; conditions: Homo sapiens, 72 hr, Cell Titer Glo
Experimental: as §1

[8] = tested on: NCI-H23 (NSCLC); test: Solid Tumor Cell Line Proliferation Assay, NCI-H23; conditions: Homo sapiens; NCI-H23, 72 hr, Cell Titer Glo
Experimental: as §1

[9] = tested on: NCI-H460 (NSCLC); test: Solid Tumor Cell Line Proliferation Assay, NCI-H460; conditions: Homo sapiens; NCI-H460, 72 hr, Cell Titer Glo
Experimental: as §1

[10] = tested on: NCI-H522 (NSCLC); test: Solid Tumor Cell Line Proliferation Assay, NCI-H522; conditions: Homo sapiens; NCI-H522, 72 hr, Cell Titer Glo
Experimental: as §1

[11] = tested on: A549 (NSCLC); test: Solid Tumor Cell Line Proliferation Assay, A549; conditions: Homo sapiens; A549, 72 hr, Cell Titer Glo
Experimental: as §1

[12] = tested on: MOLT-4 Acute Lymphoblastic T cell leukemia cells; test: Cancer Proliferation Assay (3H-thymidine uptake), MOLT-4; conditions: Homo sapiens; MOLT-4, 3 days, 3H-TdR uptake
Experimental: as §2

[13] = tested on: SR Immunoblastic Large Cell Leukemia cells; test: Cancer Proliferation Assay (3H-thymidine uptake), SR; conditions: 3 days, 3H-TdR uptake
Experimental: as §2

[14] = tested on: HOP-62 (NSCLC); test: Solid Tumor Cell Line Proliferation Assay, HOP-62; conditions: Homo sapiens; HOP-62, 72 hr, Cell Titer Glo
Experimental: as §1

[15] = tested on: RPMI-8226 Plasmacytoma cells; test: Cancer Proliferation Assay (3H-thymidine uptake), RPMI-8226; conditions: Homo sapiens; RPMI-8226, 3 days, 3H-TdR uptake
Experimental: as §2

[16] = tested on: EKVX (NSCLC); test: Solid Tumor Cell Line Proliferation Assay, EKVX; conditions: Homo sapiens, 72 hr, Cell Titer Glo
Experimental: as §1

[17] = tested on: K562 Chronic Myelogenous leukemia cells; test: Cancer Proliferation Assay (3H-thymidine uptake), K562; conditions: Homo sapiens; K562, 3 days, 3H-TdR uptake
Experimental: as §2

| IC50 [2] | IC50 [3] | IC50 [4] | IC50 [5] | IC50 [6] | IC50 [7] | IC50 [8] | IC50 [9] | IC50 [10] | IC50 [11] | IC50 [12] | IC50 [13] | IC50 [14] | IC50 [15] | IC50 [16] | IC50 [17] | Molecule | Akt activation (phosphorylation), agent alone [1] | Akt activation in combination with ADP (preincubation with agent) ([1]; 13 minutes alone followed by 2 minutes with ADP, Compound A 10 mM) |
| --- | --- | --- | --- | --- | --- | --- | --- | --- | --- | --- | --- | --- | --- | --- | --- | --- | --- | --- |
|  |  |  |  |  |  |  |  |  |  |  |  |  |  |  |  | Nc1ncnc2c1ncn2[C@@H]1O[C@H](COP(=O)(O)OP(=O)(O)O)[C@@H](O)[C@H]1O [ADP, reference compound] | no activation observed |  |
| 13.5 µg/mL (≈ 30.5 µM) | 5.61 µg/mL (≈ 12.7 µM) | 11 µg/mL (≈ 24.9 µM) | 0.74 µg/mL (≈ 1.67 µM) | ~6 µg/mL (≈ 13.6 µM) | 8.3 µg/mL (≈ 18.8 µM) | 13.9 µg/mL (≈ 31.4 µM) | 5.7 µg/mL (≈ 12.9 µM) | 5.9 µg/mL (≈ 13.3 µM) | 9.1 µg/mL (≈ 20.6 µM) | 0.56 µg/mL (≈ 1.27 µM) | 0.77 µg/mL (≈ 1.74 µM) | 10.6 µg/mL (≈ 24 µM) | 5.9 µg/mL (≈ 13.3 µM) | 12.7 µg/mL (≈ 28.7 µM) | 1.8 µg/mL (≈ 4.07 µM) | CC1=NN(c2ccc(C)c(C)c2)C(=O)/C1=N\Nc1cccc(-c2cccc(C(=O)O)c2)c1O [Compound A, 3′-[(2Z)-[1-(3,4-dimethylphenyl)-1,5-dihydro-3-methyl-5-oxo-4H-pyrazol-4-ylidene]hydrazino]-2′-hydroxy-[1,1′-biphenyl]-3-carboxylic acid] | no activation was observed |  |
|  |  |  |  |  |  |  |  |  |  |  |  |  |  |  |  | TPO: recombinant human thrombopoietin obtained from R&D Systems, Inc. | significant Akt activation | significant enhancement of activation of Akt |
